This note sets out measurements from ChEMBL document CHEMBL5505987 (Eur J Med Chem, 2024).

Type in all cases: functional, cell-based
The subject of one assay is A549. Description: Cytotoxicity against human A549 cells assessed as cell viability by MTT assay.
The next assay relates to MCF7. In words: Cytotoxicity against human MCF7 cells assessed as cell viability by MTT assay.
Another assay relates to HeLa. In words: Cytotoxicity against human HeLa cells assessed as cell viability by MTT assay.
Another assay concerns MDA-MB-231. In words: Cytotoxicity against human MDA-MB-231 cells assessed as cell viability by MTT assay.

For the compound `O=C1C[C@H](c2ccccc2)Oc2cc(O)c([C@@H](/C=C/C[C@@H](O)CCc3ccccc3)c3ccccc3)c(O)c21`, the IC50 in the assay with A549 was determined as 5.27 µM; in the assay with MCF7 it was 8.5 µM; with HeLa it was 2 µM; with MDA-MB-231, 4.05 µM.
